Source: patent US11014902B2, “MYC G-quadruplex stabilizing small molecules and their use” (The United States of America, as represented by the …, priority 2015, dated 2021)

Columns and labels:
Experiment in all cases: NCI-60 cell growth (SRB)
Type in all cases: cell-based
KM12 = conditions: KM12, Colon Cancer; 10 μM, 48 hours
Description: (§1) This example illustrates that Compounds 1 and 23 can be used in inhibit the growth of c-Myc expressing cancer cell lines in vitro. The NCI-60 panel of cancer cell lines (see Shoemaker, Nat. Rev. Cancer, 6, 813-823, 2006, and dtp.cancer.gov/discovery_development/nci-60/) was assayed for cell growth in the presence of 10 μM Compound 1 or Compound 23 for 48 hours. At 48 hours, the assay was terminated by fixation with TCA and determination of relative cell counts by addition of Sulforhodamine B (SRB, see Alley et al., Cancer Research, 48: 589-601, 1988.). Growth percent was determined by comparison of SRB reading of a duplicate plate of cells taken at the time of compound addition to the SRB reading at the termination of the treatment. The following table provides a summary of the percent of growth of each cell line in the panel compared to control (no treatment), as well as the mean delta and range of percent growth compared to control across the panel of cell lines for each treatment condition.

K-562 = conditions: K-562, Leukemia; 10 μM, 48 hours
Description: as §1

A549/ATCC = conditions: Non-Small Cell Lung Cancer, 10 μM, 48 hours
Description: as §1

HL-60(TB) = conditions: Leukemia, 10 μM, 48 hours
Description: as §1

UACC-257 = conditions: UACC-257, Melanoma; 10 μM, 48 hours
Description: as §1

MCF7 = conditions: MCF7, Breast Cancer; 10 μM, 48 hours
Description: as §1

RPMI-8226 = conditions: RPMI-8226, Leukemia; 10 μM, 48 hours
Description: as §1

PC-3 = conditions: PC-3, Prostate Cancer; 10 μM, 48 hours
Description: as §1

RXF 393 = conditions: RXF 393, Renal Cancer; 10 μM, 48 hours
Description: as §1

SK-MEL-5 = conditions: SK-MEL-5, Melanoma; 10 μM, 48 hours
Description: as §1

MDA-MB-468 = conditions: MDA-MB-468, Breast Cancer; 10 μM, 48 hours
Description: as §1

TK-10 = conditions: TK-10, Renal Cancer; 10 μM, 48 hours
Description: as §1

MDA-MB-435 = conditions: MDA-MB-435, Melanoma; 10 μM, 48 hours
Description: as §1

SNB-75 = conditions: SNB-75, CNS Cancer; 10 μM, 48 hours
Description: as §1

NCI-H23 = conditions: NCI-H23, Non-Small Cell Lung Cancer; 10 μM, 48 hours
Description: as §1

SK-MEL-28 = conditions: SK-MEL-28, Melanoma; 10 μM, 48 hours
Description: as §1

UACC-62 = conditions: UACC-62, Melanoma; 10 μM, 48 hours
Description: as §1

SF-268 = conditions: SF-268, CNS Cancer; 10 μM, 48 hours
Description: as §1

HCT-116 = conditions: HCT-116, Colon Cancer; 10 μM, 48 hours
Description: as §1

SK-OV-3 = conditions: SK-OV-3, Ovarian Cancer; 10 μM, 48 hours
Description: as §1

SF-539 = conditions: SF-539, CNS Cancer; 10 μM, 48 hours
Description: as §1

NCI-H522 = conditions: NCI-H522, Non-Small Cell Lung Cancer; 10 μM, 48 hours
Description: as §1

SNB-19 = conditions: SNB-19, CNS Cancer; 10 μM, 48 hours
Description: as §1

HT29 = conditions: HT29, Colon Cancer; 10 μM, 48 hours
Description: as §1

MOLT-4 = conditions: MOLT-4, Leukemia; 10 μM, 48 hours
Description: as §1

EKVX = conditions: Non-Small Cell Lung Cancer, 10 μM, 48 hours
Description: as §1

NCI-H322M = conditions: Non-Small Cell Lung Cancer, 10 μM, 48 hours
Description: as §1

T-47D = conditions: Breast Cancer, 10 μM, 48 hours
Description: as §1

OVCAR-8 = conditions: OVCAR-8, Ovarian Cancer; 10 μM, 48 hours
Description: as §1

786-0 = conditions: 786-0, Renal Cancer; 10 μM, 48 hours
Description: as §1

U251 = conditions: U251, CNS Cancer; 10 μM, 48 hours
Description: as §1

COLO 205 = conditions: COLO 205, Colon Cancer; 10 μM, 48 hours
Description: as §1

NCI/ADR-RES = conditions: Ovarian Cancer, 10 μM, 48 hours
Description: as §1

NCI-H226 = conditions: NCI-H226, Non-Small Cell Lung Cancer; 10 μM, 48 hours
Description: as §1

HCC-2998 = conditions: HCC-2998, Colon Cancer; 10 μM, 48 hours
Description: as §1

SMILES: Cc1ccc(NC(=O)c2c(C)oc3ccc(O)c(CN4CCCCCC4)c23)cc1 [Compound 1]
- Growth Percent (KM12): 102.59%
- Growth Percent (K-562): 75.93%
- Growth Percent (A549/ATCC): 85.87%
- Growth Percent (HL-60(TB)): 92.74%
- Growth Percent (UACC-257): 112.11%
- Growth Percent (MCF7): 78.41%
- Growth Percent (RPMI-8226): 91.38%
- Growth Percent (PC-3): 79.90%
- Growth Percent (RXF 393): 81.36%
- Growth Percent (SK-MEL-5): 86.08%
- Growth Percent (MDA-MB-468): 73.62%
- Growth Percent (TK-10): 92.66%
- Growth Percent (MDA-MB-435): 95.94%
- Growth Percent (SNB-75): 78.34%
- Growth Percent (NCI-H23): 90.23%
- Growth Percent (SK-MEL-28): 96.60%
- Growth Percent (UACC-62): 102.82%
- Growth Percent (SF-268): 100.73%
- Growth Percent (HCT-116): 64.67%
- Growth Percent (SK-OV-3): 100.26%
- Growth Percent (SF-539): 93.10%
- Growth Percent (NCI-H522): 90.68%
- Growth Percent (SNB-19): 84.35%
- Growth Percent (HT29): 100.25%
- Growth Percent (MOLT-4): 92.81%
- Growth Percent (EKVX): 83.79%
- Growth Percent (NCI-H322M): 97.51%
- Growth Percent (T-47D): 92.74%
- Growth Percent (OVCAR-8): 89.96%
- Growth Percent (786-0): 84.68%
- Growth Percent (U251): 88.66%
- Growth Percent (COLO 205): 104.20%
- Growth Percent (NCI/ADR-RES): 89.34%
- Growth Percent (NCI-H226): 85.66%
- Growth Percent (HCC-2998): 116.36%

SMILES: Cc1oc2ccc(O)c(CN3CCCCCC3)c2c1C(=O)Nc1ccc(C(F)(F)F)cc1 [Compound 23]
- Growth Percent (KM12): 65.50%
- Growth Percent (K-562): 29.63%
- Growth Percent (A549/ATCC): 61.22%
- Growth Percent (HL-60(TB)): 83.01%
- Growth Percent (UACC-257): 82.00%
- Growth Percent (MCF7): 48.09%
- Growth Percent (RPMI-8226): 75.08%
- Growth Percent (PC-3): 45.70%
- Growth Percent (RXF 393): 50.40%
- Growth Percent (SK-MEL-5): 69.97%
- Growth Percent (MDA-MB-468): 5.74%
- Growth Percent (TK-10): 81.06%
- Growth Percent (MDA-MB-435): 58.22%
- Growth Percent (SNB-75): 50.57%
- Growth Percent (NCI-H23): 69.93%
- Growth Percent (SK-MEL-28): 76.90%
- Growth Percent (UACC-62): 67.27%
- Growth Percent (SF-268): 75.44%
- Growth Percent (HCT-116): 32.68%
- Growth Percent (SK-OV-3): 76.35%
- Growth Percent (SF-539): 61.23%
- Growth Percent (NCI-H522): 72.52%
- Growth Percent (SNB-19): 69.94%
- Growth Percent (HT29): 80.45%
- Growth Percent (MOLT-4): 64.31%
- Growth Percent (EKVX): 64.06%
- Growth Percent (NCI-H322M): 69.34%
- Growth Percent (T-47D): 73.98%
- Growth Percent (OVCAR-8): 66.34%
- Growth Percent (786-0): 49.50%
- Growth Percent (U251): 55.07%
- Growth Percent (COLO 205): 48.73%
- Growth Percent (NCI/ADR-RES): 53.65%
- Growth Percent (NCI-H226): 72.45%
- Growth Percent (HCC-2998): 11.22%
